According to patent EP0745083B1, “2-HETEROARYL-5,11-DIHYDRO-6H-DIPYRIDO [3,2-b:2',3'-e][1,4]DIAZEPINES AND THEIR USE IN THE PREVENTION OR TREATMENT OF HIV INFECTION” (BOEHRINGER INGELHEIM PHARMACEUTICALS INC., priority 1994, dated 1995):

Key:
[1] = tested on: HTLV-IIIB strain of HIV-1; assay: Syncytia (human T-cell culture) assay; format: cell-based; conditions: Human immunodeficiency virus 1, IIIB, 96 h; c8166 cells; read four days after virus challenge
Procedure: In order to confirm that compounds which are active in the RT Assay also have the ability to inhibit HIV replication in a living system, compounds according to the invention were also tested in the human T-Cell Culture (Syncytia) Assay described below.
Formation of syncytia is a feature of in vitro cultures of CD4+ T-cells infected with HIV-1. In this assay, T-cells are treated with a putative replication inhibiting compound and then infected with HIV-1. After incubation, the culture is checked for the formation of syncytia. The absence or reduction in the number of syncytia is used as a measure of the test compound's ability to inhibit HIV replication.
The target cells, designated c8166, are a subclone of human lymphoma cells of T-cell origin and are established at an initial density of 5x10^4 per 100 ul in RPMI 1640 (+ 10% fetal bovine serum) culture medium in 96 well flat bottom plates. A selected amount of test compound, dissolved in DMSO, is included. After 24 hours, 50-100 TCID50's (the dose that results in induced effect in 50% of test cultures) of the HTLV-IIIB strain of HIV-1 (2) are inoculated into each culture. Control cultures receive compound or virus only. Four days after virus challenge, cultures are visually examined for the frequency and distribution of virus-induced giant cell syncytia. The percent inhibition by the test compound is determined by comparison with control values. Confirmation of the presence or absence of virus replication is accomplished by harvesting the cell free culture fluids from all experimental groups to determine the presence or absence of infectious progeny through the induction of syncytia formation in secondary human T-cell cultures after 3 days.

HIV-1 RT Y181C = target: T1, HIV-1 RT Y181C (Human immunodeficiency virus type 1 group M subtype B, UniProt P03367, Y780C); assay: Reverse Transcriptase (RT) Assay, Y181C mutant enzyme; format: biochemical, Human Immunodeficiency Virus (HIV-1); conditions: 1 µM compound, read-out: Reverse Transciptase Assay % inhibition (1 µM) Y181C
T1 construct: Utilization of mutant RT eraymes (Y181C and Y181L, prepared by site-directed mutagenesis); made in house
Source text: Among the enzymes for which Human Immunodeficiency Virus (HIV-1) encodes is a reverse transcriptase (1), so-named because it transcribes a DNA copy from an RNA template. This activity can be quantitatively measured in a cell-free enzyme assay, which has been previously described (2), and is based upon the observation that reverse transcriptase is able to use a synthetic template [poly r(C) primed with oligo d(G)] to transcribe a radio-labelled, acid-precipitable DNA strand utilizing ^3H-dGTP as a substrate. The assay described below utilizes the wild type (WT) enzyme, which is the predominant form of the enzyme observed in patients infected with HIV-1. Utilization of mutant RT eraymes (Y181C and Y181L, prepared by site-directed mutagenesis in which the tyrosine residue at codon 181 has been replaced by a cysteine or a leucine residue, respectively) and analogous assay conditions allows compounds to be evaluated for their effectiveness at inhibiting these mutant enzymes.
The 2X concentrated stock reaction mixture is aliquoted and stored at -20°C. The mixture is stable and thawed for use in each assay. This enzyme assay has been adapted to a 96 well microtiter plate system, and has been previously described (6). Tris buffer (50 mM, pH 7.4), vehicle (solvent diluted to match the compound dilution), or compounds in vehicle are dispensed into 96-well microtiter plates (10µL/well; 3 wells/ compound). The HIV-1 RT enzyme is thawed, diluted in 50mM Tris pH 7.4 so that fifteen µL of diluted enzyme contain 0.001 Unit (one unit is that amount of enzyme to transform 1 micromole of substrate per minute at 25°C), and fifteen µL are dispensed per well. Twenty µL of 0.12-0.5M EDTA are added to the first three wells of the microtiter plate. EDTA chelates the Mg^++ present and prevents reverse transcription. This group serves as background polymerization which is subtracted from all other groups. Twenty-five ul of the 2X reaction mixture are added to all wells and the assay is allowed to incubate at room temperature for 60 minutes. The assay is terminated by precipitating the DNA in each well with 50µL of 10% trichloracetic acid (TCA) (10% w/v) in sodium pyrophosphate (1% w/v). The microtiter plate is incubated for 15 minutes at 4°C and the precipitate is fixed onto #30 glass fiber paper (Schleicher & Schuell) using a Skatron semi-automatic harvester. The filters are then washed with additional TCA (5%) containing sodium pyrophosphate (1%), rinsed with aqueous ethanol (70%), dried, and transferred to scintillation vials (6). Each vial receives 2 mL of scintillation cocktail and is counted in a Beckman beta counter. The calculation for percent inhibition is as follows: % inhibition =(CPM Mean Test Value - CPM Mean Control Value X100)/(CPM Mean Control Value) [formula]

SMILES | IC50 [1] [nM] | inhibition at 1 µM (HIV-1 RT Y181C) [%]
CCN1c2ncccc2C(=O)N(C)c2ccc(-c3cn[nH]c3)nc21 [Example 1, 5,11-Dihydro-11-ethyl-5-methyl-2-(4-pyrazolyl)-6H-dipyrido[3,2-b:2'3'-e][1,4]diazepin-6-one] | 40 | 96
CN1C(=O)c2cccnc2N(C2CC2)c2nc(-c3cn[nH]c3)ccc21 [Example 6, 5,11-Dihydro-5-methyl-11-c-propyl-2-(4-pyrazolyl)-6H-dipyrido[3,2-b:2',3'-e][1,4]diazepin-6-one] | 10 | 87
CCN1c2ncccc2C(=O)N(C)c2ccc(-c3cc[nH]c3)nc21 [Example 12, 5,11-Dihydro-11-ethyl-5-methyl-2-(3-pyrrolyl)-6H-dipyrido[3,2-b:2',3'-e][1,4]diazepin-6-one] | 40 | 91
CN1C(=O)c2cccnc2N(C2CC2)c2nc(-c3cc[nH]c3)ccc21 [Example 25, 11-Cyclopropyl-5,11-dihydro-5-methyl-2-(3-pyrrolyl)-6H-dipyrido[3,2-b:2',3'-e][1,4]diazepin-6-one] | 80000 | 86
